For orientation: inhibition means the share of the control response that was lost under treatment.

Assay [1] deals with Tyrosine-protein kinase BTK (Homo sapiens) (UniProt Q06187). Kind of assay: Inhibition of human recombinant BTK at 40 nM in presence of ATP by radiometric assay relative to control.
Assay [2] has as its target Dual specificity protein kinase CLK4 (Homo sapiens) (UniProt Q9HAZ1). Briefly: Inhibition of human recombinant CLK4 at 40 nM in presence of ATP by radiometric assay relative to control.
Assay [3] addresses Casein kinase I isoform gamma-3 (Homo sapiens) (UniProt Q9Y6M4). Kind of assay: Inhibition of human recombinant CK1g3 at 40 nM related to control ULK1.
The target in assay [4] is T1, Protein kinase C epsilon type (Homo sapiens) (UniProt Q02156).
T1 sequence (whole entry): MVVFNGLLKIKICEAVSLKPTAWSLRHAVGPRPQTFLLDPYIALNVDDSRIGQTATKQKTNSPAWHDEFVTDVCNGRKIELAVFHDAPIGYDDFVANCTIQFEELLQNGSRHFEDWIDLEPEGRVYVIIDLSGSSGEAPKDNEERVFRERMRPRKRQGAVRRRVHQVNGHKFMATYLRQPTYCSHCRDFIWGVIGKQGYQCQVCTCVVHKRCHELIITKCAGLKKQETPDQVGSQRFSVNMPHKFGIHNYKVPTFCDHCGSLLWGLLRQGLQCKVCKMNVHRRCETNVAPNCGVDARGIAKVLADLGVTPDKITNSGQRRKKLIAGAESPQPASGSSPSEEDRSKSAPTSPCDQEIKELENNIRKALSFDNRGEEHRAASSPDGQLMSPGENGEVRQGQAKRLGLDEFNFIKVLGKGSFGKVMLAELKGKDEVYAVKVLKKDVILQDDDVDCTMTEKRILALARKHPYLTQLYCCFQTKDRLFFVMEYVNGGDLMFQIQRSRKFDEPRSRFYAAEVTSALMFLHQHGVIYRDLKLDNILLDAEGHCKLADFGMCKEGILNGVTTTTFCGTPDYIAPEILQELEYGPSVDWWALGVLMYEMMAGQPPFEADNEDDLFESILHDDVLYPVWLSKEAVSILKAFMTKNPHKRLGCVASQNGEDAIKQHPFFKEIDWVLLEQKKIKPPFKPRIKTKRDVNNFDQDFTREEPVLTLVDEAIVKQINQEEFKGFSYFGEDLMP
Briefly: Inhibition of human recombinant PKCe at 40 nM related to control ULK1.

The target of assay [5] is T2, Serine/threonine-protein kinase Sgk1 (Homo sapiens) (UniProt O00141).
T2 sequence (whole entry): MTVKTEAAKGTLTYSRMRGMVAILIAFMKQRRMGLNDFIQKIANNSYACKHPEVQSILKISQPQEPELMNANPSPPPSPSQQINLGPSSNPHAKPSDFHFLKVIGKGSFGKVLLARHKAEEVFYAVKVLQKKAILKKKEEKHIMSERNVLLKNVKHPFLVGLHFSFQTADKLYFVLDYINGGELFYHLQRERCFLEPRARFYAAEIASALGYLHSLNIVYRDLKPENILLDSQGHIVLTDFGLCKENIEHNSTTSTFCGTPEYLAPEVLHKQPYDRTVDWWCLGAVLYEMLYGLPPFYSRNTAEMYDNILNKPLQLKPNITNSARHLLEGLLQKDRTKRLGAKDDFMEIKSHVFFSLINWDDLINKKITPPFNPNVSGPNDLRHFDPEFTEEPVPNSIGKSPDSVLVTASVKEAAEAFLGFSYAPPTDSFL
Briefly: Inhibition of human recombinant SGK1 at 40 nM related to control ULK1.

Assay [6] deals with Homeodomain-interacting protein kinase 3 (Homo sapiens) (UniProt Q9H422). Briefly: Inhibition of human recombinant HIPK3 at 500 nM in presence of ATP by radiometric assay relative to control.
Assay [7] deals with T3, Rhodopsin kinase GRK1 (Homo sapiens) (UniProt Q15835).
T3 sequence (whole entry): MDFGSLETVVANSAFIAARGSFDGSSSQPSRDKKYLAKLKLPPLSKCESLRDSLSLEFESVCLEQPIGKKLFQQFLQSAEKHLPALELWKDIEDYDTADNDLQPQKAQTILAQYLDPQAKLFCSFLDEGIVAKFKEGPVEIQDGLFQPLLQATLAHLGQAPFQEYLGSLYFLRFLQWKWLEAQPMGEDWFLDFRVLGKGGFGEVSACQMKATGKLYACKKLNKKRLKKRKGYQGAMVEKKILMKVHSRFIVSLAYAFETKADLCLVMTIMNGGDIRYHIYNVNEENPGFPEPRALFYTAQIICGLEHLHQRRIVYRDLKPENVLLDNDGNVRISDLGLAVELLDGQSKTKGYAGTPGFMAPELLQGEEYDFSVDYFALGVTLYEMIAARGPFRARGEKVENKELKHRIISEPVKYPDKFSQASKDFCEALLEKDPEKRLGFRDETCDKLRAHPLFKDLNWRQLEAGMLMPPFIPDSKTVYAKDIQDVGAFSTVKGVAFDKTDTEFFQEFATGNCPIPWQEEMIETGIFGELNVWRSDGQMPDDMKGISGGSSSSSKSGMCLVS
Kind of assay: Inhibition of human recombinant RHOK at 500 nM in presence of ATP by radiometric assay relative to control.

Assay [8] concerns the target Activin receptor type-2A (Homo sapiens) (UniProt P27037). Briefly: Inhibition of human recombinant ACTR2 at 500 nM related to control ULK1.
Assay [9] deals with Cyclin-dependent kinase 13 (Homo sapiens) (UniProt Q14004). Briefly: Inhibition of human recombinant CHED at 15 nM in presence of ATP by radiometric assay relative to control.
In assay [10] the target is Serine/threonine-protein kinase Nek7 (Homo sapiens) (UniProt Q8TDX7). Briefly: Inhibition of human recombinant NEK7 at 15 nM in presence of ATP by radiometric assay relative to control.
The target of assay [11] is Mitogen-activated protein kinase 11 (Homo sapiens) (UniProt Q15759). Briefly: Inhibition of human recombinant p38beta at 15 nM in presence of ATP by radiometric assay relative to control.
Assay [12] concerns the target Serine/threonine-protein kinase B-raf (Homo sapiens) (UniProt P15056). Kind of assay: Inhibition of human recombinant BRAF at 15 nM related to control ULK1.
Assay [13] addresses Dual specificity mitogen-activated protein kinase kinase 1 (Homo sapiens) (UniProt Q02750). Briefly: Inhibition of human recombinant MAP2K1 at 15 nM related to control ULK1.
Assay [14] deals with Ribosomal protein S6 kinase alpha-3 (Homo sapiens) (UniProt P51812). Kind of assay: Inhibition of human recombinant RSK2 at 15 nM related to control ULK1.
Assay [15] addresses Serine/threonine-protein kinase D2 (Homo sapiens) (UniProt Q9BZL6). Briefly: Inhibition of human recombinant PKD2 at 15 nM related to control ULK1.

Molecules are shown by their SMILES.

Regarding `O=C(N[C@@H](C1CC1)C(F)(F)F)c1cc(-c2cnn3cc(-c4ccc(F)cc4)cnc23)cs1`, the inhibition in assay [1] worked out at 0%; in assay [2], 52%. Moreover, the fold change (FC) was determined as 0.05 in assay [3], 0 in assay [4] and 0.1 in assay [5].
`CNC(=O)c1ccccc1Oc1nc(Nc2cc(OC)c(OC)c(OC)c2)ncc1Br`: the inhibition was 6% in [6] and 0% in assay [7]. Further, the fold change (FC) in assay [8] was 0.04.
With `CC(C)[C@H](NC(=O)c1cc(-c2cnn3cc(-c4ccc(OCCN5CCCCC5)cc4)cnc23)cs1)C(F)(F)F`, the inhibition in assay [9] is 0%; in assay [10], 0%; in [11], 1%. Moreover, the fold change (FC) is 0.13 in assay [12], 0.08 in assay [13], 0 in assay [14] and 0 in assay [15].

The record behind these values is ChEMBL document CHEMBL5653631, “A Potent and Selective ULK1 Inhibitor Suppresses Autophagy and Sensitizes Cancer Cells to Nutrient Stress” (iScience, 2018).
